Structures can show the parent of a compound that is named as a salt.
Tests used:
Assay in all cases: cells
CWR22R = format: functional, cell-based, Homo sapiens; details: Homo sapiens, 22Rv1
Description: SANGER: Inhibition of human 22RV1 cell growth in a cell viability assay.

HCE-4 = format: functional, cell-based, Homo sapiens; details: Homo sapiens, HCE-4
Description: SANGER: Inhibition of human HCE-4 cell growth in a cell viability assay.

UMUC3 = format: functional, cell-based, Homo sapiens; details: Homo sapiens, UMUC3
Description: SANGER: Inhibition of human UM-UC-3 cell growth in a cell viability assay.

LS-411N = format: functional, cell-based, Homo sapiens; details: Homo sapiens, LS-411N
MHH-ES-1 = format: functional, cell-based, Homo sapiens; details: Homo sapiens, MHH-ES-1
Description: SANGER: Inhibition of human MHH-ES-1 cell growth in a cell viability assay.

MSTO-211H = format: functional, cell-based, Homo sapiens; details: Homo sapiens, MSTO-211H
Description: SANGER: Inhibition of human MSTO-211H cell growth in a cell viability assay.

OE19 = format: functional, cell-based, Homo sapiens; details: Homo sapiens, OE19
Description: SANGER: Inhibition of human OE19 cell growth in a cell viability assay.

Calu-3 = format: functional, cell-based, Homo sapiens; details: Homo sapiens, Calu-3
Description: SANGER: Inhibition of human Calu-3 cell growth in a cell viability assay.

LB996-RCC = format: functional, cell-based, Homo sapiens; details: Homo sapiens, LB996-RCC
Description: SANGER: Inhibition of human LB996-RCC cell growth in a cell viability assay.

D-542MG = format: functional, cell-based, Homo sapiens; details: Homo sapiens, D-542MG
Description: SANGER: Inhibition of human D-542MG cell growth in a cell viability assay.

DMS-273 = format: functional, cell-based, Homo sapiens; details: Homo sapiens, DMS-273
Description: SANGER: Inhibition of human DMS-273 cell growth in a cell viability assay.

SK-N-DZ = format: functional, cell-based, Homo sapiens; details: Homo sapiens, SK-N-DZ
Description: SANGER: Inhibition of human SK-N-DZ cell growth in a cell viability assay.

HSC-2 = format: functional, cell-based, Homo sapiens; details: Homo sapiens, HSC-2
Description: SANGER: Inhibition of human HSC-2 cell growth in a cell viability assay.

HCC1569 = format: functional, cell-based, Homo sapiens; details: Homo sapiens, HCC1569
Description: SANGER: Inhibition of human HCC1569 cell growth in a cell viability assay.

NCI-H226 = format: functional, cell-based, Homo sapiens; details: Homo sapiens, NCI-H226
Description: SANGER: Inhibition of human NCI-H226 cell growth in a cell viability assay.

639-V = format: functional, cell-based, Homo sapiens; details: Homo sapiens, 639-V
Description: SANGER: Inhibition of human 639-V cell growth in a cell viability assay.

PANC-03-27 = format: functional, cell-based, Homo sapiens; details: Homo sapiens, PANC-03-27
Description: SANGER: Inhibition of human PANC-03-27 cell growth in a cell viability assay.

HT-3 = format: functional, cell-based, Homo sapiens; details: Homo sapiens, HT-3
Description: SANGER: Inhibition of human HT-3 cell growth in a cell viability assay.

HOS = format: functional, cell-based, Homo sapiens; details: Homo sapiens, HOS
Description: SANGER: Inhibition of human HOS cell growth in a cell viability assay.

MPP-89 = format: functional, cell-based, Homo sapiens; details: Homo sapiens, MPP-89
Description: SANGER: Inhibition of human MPP-89 cell growth in a cell viability assay.

DBTRG-05MG = format: functional, cell-based, Homo sapiens; details: Homo sapiens, DBTRG-05MG
Description: SANGER: Inhibition of human DBTRG-05MG cell growth in a cell viability assay.

NCI-H2087 = format: functional, cell-based, Homo sapiens; details: Homo sapiens, NCI-H2087
Description: SANGER: Inhibition of human NCI-H2087 cell growth in a cell viability assay.

NCI-H2342 = format: functional, cell-based, Homo sapiens; details: Homo sapiens, NCI-H2342
Description: SANGER: Inhibition of human NCI-H2342 cell growth in a cell viability assay.

CPC-N = format: functional, cell-based, Homo sapiens; details: Homo sapiens, CPC-N
Description: SANGER: Inhibition of human CPC-N cell growth in a cell viability assay.

NCI-H1581 = format: functional, cell-based, Homo sapiens; details: Homo sapiens, NCI-H1581
Description: SANGER: Inhibition of human NCI-H1581 cell growth in a cell viability assay.

KOSC-2 = format: functional, cell-based, Homo sapiens; details: Homo sapiens, KOSC-2
Description: SANGER: Inhibition of human KOSC-2 cell growth in a cell viability assay.

A-375 = format: functional, cell-based, Homo sapiens; details: Homo sapiens, A-375
Description: SANGER: Inhibition of human A375 cell growth in a cell viability assay.

CAL-62 = format: functional, cell-based, Homo sapiens; details: Homo sapiens, CAL-62
Description: SANGER: Inhibition of human CAL-62 cell growth in a cell viability assay.

KU812 cell line = format: functional, cell-based, Homo sapiens; details: Homo sapiens, KU812
Description: SANGER: Inhibition of human KU812 cell growth in a cell viability assay.

NCI-H716 = format: functional, cell-based, Homo sapiens; details: Homo sapiens, NCI-H716
Description: SANGER: Inhibition of human NCI-H716 cell growth in a cell viability assay.

SK-MEL-24 = format: functional, cell-based, Homo sapiens; details: Homo sapiens, SK-MEL-24
Description: SANGER: Inhibition of human SK-MEL-24 cell growth in a cell viability assay.

NCI-H720 = format: functional, cell-based, Homo sapiens; details: Homo sapiens, NCI-H720
Description: SANGER: Inhibition of human NCI-H720 cell growth in a cell viability assay.

LNCaP-Clone-FGC = format: functional, cell-based, Homo sapiens; details: Homo sapiens, LNCaP-Clone-FGC
Description: SANGER: Inhibition of human LNCaP-Clone-FGC cell growth in a cell viability assay.

LXF-289 cell line = format: functional, cell-based, Homo sapiens; details: Homo sapiens, LXF-289
Description: SANGER: Inhibition of human LXF-289 cell growth in a cell viability assay.

SK-MEL3 = format: functional, cell-based, Homo sapiens, SK-MEL-3; details: Homo sapiens, SK-MEL3
Description: SANGER: Inhibition of human SK-MEL-3 cell growth in a cell viability assay.

Detroit 562 = format: functional, cell-based, Homo sapiens; details: Homo sapiens, Detroit 562
Description: SANGER: Inhibition of human Detroit562 cell growth in a cell viability assay.

OS-RC-2 = format: functional, cell-based, Homo sapiens; details: Homo sapiens, OS-RC-2
Description: SANGER: Inhibition of human OS-RC-2 cell growth in a cell viability assay.

HT-1376 = format: functional, cell-based, Homo sapiens; details: Homo sapiens, HT-1376
Description: SANGER: Inhibition of human HT-1376 cell growth in a cell viability assay.

THP-1 = format: functional, cell-based, Homo sapiens; details: Homo sapiens, THP-1
Description: SANGER: Inhibition of human THP-1 cell growth in a cell viability assay.

OVCAR-8 = format: functional, cell-based, Homo sapiens; details: Homo sapiens, OVCAR-8
Description: SANGER: Inhibition of human OVCAR-8 cell growth in a cell viability assay.

VMRC-RCZ = format: functional, cell-based, Homo sapiens; details: Homo sapiens, VMRC-RCZ
Description: SANGER: Inhibition of human VMRC-RCZ cell growth in a cell viability assay.

ME-180 = format: functional, cell-based, Homo sapiens; details: Homo sapiens, ME-180
Description: SANGER: Inhibition of human ME-180 cell growth in a cell viability assay.

MRK-nu-1 = format: functional, cell-based, Homo sapiens; details: Homo sapiens, MRK-nu-1
Description: SANGER: Inhibition of human MRK-nu-1 cell growth in a cell viability assay.

A2780 = format: functional, cell-based, Homo sapiens; details: Homo sapiens, A2780
Description: SANGER: Inhibition of human A2780 cell growth in a cell viability assay.

MC116 = format: functional, cell-based, Homo sapiens; details: Homo sapiens, MC116
Description: SANGER: Inhibition of human MC116 cell growth in a cell viability assay.

MZ2-MEL = format: functional, cell-based, Homo sapiens; details: Homo sapiens, MZ2-MEL
Description: SANGER: Inhibition of human MZ2-MEL cell growth in a cell viability assay.

SJRH30 = format: functional, cell-based, Homo sapiens; details: Homo sapiens, SJRH30
Description: SANGER: Inhibition of human SJRH30 cell growth in a cell viability assay.

## CCC/C=C/C=C/C(=O)O[C@H]1/C(=C/C(=O)OC)C[C@H]2C[C@H]([C@@H](C)O)OC(=O)C[C@H](O)C[C@@H]3C[C@H](OC(C)=O)C(C)(C)[C@](O)(C[C@@H]4C/C(=C/C(=O)OC)C[C@H](/C=C/C(C)(C)[C@]1(O)O2)O4)O3 [BRYOSTATIN 1]
CWR22R
  IC50: > 0.008 µM
HCE-4
  IC50: > 0.008 µM
UMUC3
  IC50: > 0.008 µM
LS-411N
  IC50: > 0.008 µM
MHH-ES-1
  IC50: > 0.008 µM
MSTO-211H
  IC50: > 0.008 µM
OE19
  IC50: > 0.008 µM
Calu-3
  IC50: > 0.008 µM
LB996-RCC
  IC50: > 0.008 µM
D-542MG
  IC50: 0.00756 µM
DMS-273
  IC50: > 0.008 µM
SK-N-DZ
  IC50: > 0.008 µM
HSC-2
  IC50: > 0.008 µM
HCC1569
  IC50: > 0.008 µM
NCI-H226
  IC50: > 0.008 µM
639-V
  IC50: > 0.008 µM
PANC-03-27
  IC50: > 0.008 µM
HT-3
  IC50: > 0.008 µM
HOS
  IC50: > 0.008 µM
MPP-89
  IC50: > 0.008 µM
DBTRG-05MG
  IC50: > 0.008 µM
NCI-H2087
  IC50: > 0.008 µM
NCI-H2342
  IC50: > 0.008 µM
CPC-N
  IC50: > 0.008 µM
NCI-H1581
  IC50: > 0.008 µM
KOSC-2
  IC50: > 0.008 µM
A-375
  IC50: > 0.008 µM
CAL-62
  IC50: > 0.008 µM
KU812 cell line
  IC50: > 0.008 µM
NCI-H716
  IC50: > 0.008 µM
SK-MEL-24
  IC50: > 0.008 µM
NCI-H720
  IC50: > 0.008 µM
LNCaP-Clone-FGC
  IC50: > 0.008 µM
LXF-289 cell line
  IC50: > 0.008 µM
SK-MEL3
  IC50: > 0.008 µM
Detroit 562
  IC50: > 0.008 µM
OS-RC-2
  IC50: > 0.008 µM
HT-1376
  IC50: > 0.008 µM
THP-1
  IC50: > 0.008 µM
OVCAR-8
  IC50: > 0.008 µM
VMRC-RCZ
  IC50: > 0.008 µM
ME-180
  IC50: > 0.008 µM
MRK-nu-1
  IC50: > 0.008 µM
A2780
  IC50: > 0.008 µM
MC116
  IC50: > 0.008 µM
MZ2-MEL
  IC50: > 0.008 µM
SJRH30
  IC50: > 0.008 µM

## COC1=CC(c2cc3ccccc3[nH]2)=N/C1=C\c1[nH]c(C)cc1C [OBATOCLAX MESYLATE]
CWR22R
  IC50: 0.274 µM
HCE-4
  IC50: 0.203 µM
UMUC3
  IC50: 0.291 µM
LS-411N
  IC50: 0.143 µM
MHH-ES-1
  IC50: 0.186 µM
MSTO-211H
  IC50: 4.84 µM
OE19
  IC50: 1.66 µM
Calu-3
  IC50: 0.253 µM
LB996-RCC
  IC50: 0.471 µM
D-542MG
  IC50: 0.17 µM
DMS-273
  IC50: 0.0285 µM
SK-N-DZ
  IC50: 0.859 µM
HSC-2
  IC50: 0.0247 µM
HCC1569
  IC50: 0.018 µM
NCI-H226
  IC50: 0.0663 µM
639-V
  IC50: 0.156 µM
PANC-03-27
  IC50: 0.0967 µM
HT-3
  IC50: 1.31 µM
HOS
  IC50: 0.0347 µM
MPP-89
  IC50: 0.463 µM
DBTRG-05MG
  IC50: 2.06 µM
NCI-H2087
  IC50: 0.13 µM
NCI-H2342
  IC50: 0.0512 µM
CPC-N
  IC50: 1.98 µM
NCI-H1581
  IC50: 2.32 µM
KOSC-2
  IC50: 9.63 µM
A-375
  IC50: < 0.0625 µM
CAL-62
  IC50: 0.026 µM
KU812 cell line
  IC50: 0.994 µM
NCI-H716
  IC50: 1.69 µM
SK-MEL-24
  IC50: 0.913 µM
NCI-H720
  IC50: > 16 µM
LNCaP-Clone-FGC
  IC50: 2.3 µM
LXF-289 cell line
  IC50: 0.26 µM
SK-MEL3
  IC50: < 0.0625 µM
Detroit 562
  IC50: 0.489 µM
OS-RC-2
  IC50: 0.431 µM
HT-1376
  IC50: 0.127 µM
THP-1
  IC50: 0.02 µM
OVCAR-8
  IC50: 0.0311 µM
VMRC-RCZ
  IC50: 0.403 µM
ME-180
  IC50: 1.44 µM
MRK-nu-1
  IC50: 0.0494 µM
A2780
  IC50: 0.0208 µM
MC116
  IC50: 0.113 µM
MZ2-MEL
  IC50: 0.0296 µM
SJRH30
  IC50: 0.321 µM

## Cc1cc([N+](=O)[O-])ccc1NS(=O)(=O)c1cc(Cl)ccc1Cl
CWR22R
  IC50: 2.63 µM
HCE-4
  IC50: 5.45 µM
UMUC3
  IC50: 1.67 µM
LS-411N
  IC50: 4.52 µM
MHH-ES-1
  IC50: 6.43 µM
MSTO-211H
  IC50: > 32 µM
OE19
  IC50: 3.78 µM
Calu-3
  IC50: 2.87 µM
LB996-RCC
  IC50: 14.5 µM
D-542MG
  IC50: 0.277 µM
DMS-273
  IC50: 0.719 µM
SK-N-DZ
  IC50: > 32 µM
HSC-2
  IC50: 4.56 µM
HCC1569
  IC50: 3.48 µM
NCI-H226
  IC50: 12.3 µM
639-V
  IC50: 1.61 µM
PANC-03-27
  IC50: 6.38 µM
HT-3
  IC50: > 32 µM
HOS
  IC50: 2.53 µM
MPP-89
  IC50: 20.1 µM
DBTRG-05MG
  IC50: 9.11 µM
NCI-H2087
  IC50: 2.16 µM
NCI-H2342
  IC50: 4.93 µM
CPC-N
  IC50: > 32 µM
NCI-H1581
  IC50: 9.37 µM
KOSC-2
  IC50: > 32 µM
A-375
  IC50: 3.58 µM
CAL-62
  IC50: 2.65 µM
KU812 cell line
  IC50: 7.2 µM
NCI-H716
  IC50: > 32 µM
SK-MEL-24
  IC50: 6.27 µM
NCI-H720
  IC50: > 32 µM
LNCaP-Clone-FGC
  IC50: 21.6 µM
LXF-289 cell line
  IC50: 5.36 µM
SK-MEL3
  IC50: 4.68 µM
Detroit 562
  IC50: 5.32 µM
OS-RC-2
  IC50: 6.75 µM
HT-1376
  IC50: 3.81 µM
THP-1
  IC50: 19.6 µM
OVCAR-8
  IC50: 4.26 µM
VMRC-RCZ
  IC50: 6.97 µM
ME-180
  IC50: 2.82 µM
MRK-nu-1
  IC50: 2.73 µM
A2780
  IC50: 5.49 µM
MC116
  IC50: 3.14 µM
MZ2-MEL
  IC50: 1.44 µM
SJRH30
  IC50: 2.07 µM

Reference: ChEMBL document CHEMBL1201861, “Genomics of Drug Sensitity in Cancer screening data, Wellcome Trust Sanger Institute”
